Source: PubChem BioAssay AID248 (DTP/NCI, 2004)
Inconclusive results and toxic doses are left out. Rule as the data show it: active = T/C of 150% or more; inactive = T/C below 125%.

Test system: L1210 leukemia ip in BDF1 mice, survival T/C
Assay: NCI In Vivo Anticancer Drug Screen. Data for tumor model L1210 Leukemia (intraperitoneal) in B6D2F1 (BDF1) mice
Settings: endpoint: mean survival time, higher = longer survival
Procedure, shortened: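 Each compound was tested against a transplantable tumor grown in mice. The endpoint was survival, with treated animals benchmarked against vehicle controls as a simple ratio.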

Measured: T/C

CCCCCCCCCCCCBr
inactive: dose: 100.0 mg/kg/injection, schedule: Q04DX002 (ip), vehicle: saline with Tween-80 102 % of control | dose: 200.0 mg/kg/injection, schedule: Q04DX002 (ip), vehicle: saline with Tween-80 97 % of control | dose: 400.0 mg/kg/injection, schedule: Q04DX002 (ip), vehicle: saline with Tween-80 102 % of control

Cc1[nH]c(N)nc(=S)c1CCCOc1ccc([N+](=O)[O-])cc1
inactive: dose: 50.0 mg/kg/injection, schedule: Q01DX009 (ip), vehicle: Klucel (hydroxypropylcellulose) (HPC) 112 % of control | dose: 100.0 mg/kg/injection, schedule: Q01DX009 (ip), vehicle: Klucel (hydroxypropylcellulose) (HPC) 96 % of control | dose: 200.0 mg/kg/injection, schedule: Q01DX009 (ip), vehicle: Klucel (hydroxypropylcellulose) (HPC) 102 % of control

S=C(Nc1ccccc1)Nc1ccc2ccccc2c1
inactive: dose: 100.0 mg/kg/injection, schedule: Q04DX003 (ip), vehicle: Klucel (hydroxypropylcellulose) (HPC) 100 % of control | dose: 200.0 mg/kg/injection, schedule: Q04DX003 (ip), vehicle: Klucel (hydroxypropylcellulose) (HPC) 94 % of control | dose: 400.0 mg/kg/injection, schedule: Q04DX003 (ip), vehicle: Klucel (hydroxypropylcellulose) (HPC) 110 % of control

CC(C)CNC(=O)Nc1ccc(Cl)c(Cl)c1
inactive: dose: 100.0 mg/kg/injection, schedule: Q01DX001 (ip), vehicle: saline 97 % of control | dose: 200.0 mg/kg/injection, schedule: Q01DX001 (ip), vehicle: saline 95 % of control | dose: 400.0 mg/kg/injection, schedule: Q01DX001 (ip), vehicle: saline 95 % of control

O=c1[nH]c(-c2ccccc2)nc2c1OCN(Cc1ccccc1)C2
inactive: dose: 50.0 mg/kg/injection, schedule: Q01DX001 (ip), vehicle: carboxymethylcellulose (CMC) 98 % of control | dose: 100.0 mg/kg/injection, schedule: Q01DX001 (ip), vehicle: carboxymethylcellulose (CMC) 101 % of control | dose: 200.0 mg/kg/injection, schedule: Q01DX001 (ip), vehicle: carboxymethylcellulose (CMC) 98 % of control | dose: 400.0 mg/kg/injection, schedule: Q01DX001 (ip), vehicle: carboxymethylcellulose (CMC) 93 % of control
